# How the values were obtained:
# [1] = system: kidney disease model rats; experiment: Action to depress blood pressure (tail cuff method); assay type: in vivo, Sprague-Dawley female rats; settings: 20 mg/kg per os; for Blood pressure: systolic, average, two days from administration, control (water) 203
# Description: The compounds of the present invention and the reference substance were forcedly administered per os to kidney disease model rats, and the action to depress blood pressure was observed. The kidney disease model rats were prepared by ligature of branches of renal artery in accordance with the conventional method, that is, the left hilum renalis of Sprague-Dawley female rats was exposed under anesthesia, and one of four secondary branches of renal artery was left unligated, while the remaining three branches were ligated, respectively. After a week, the hilum renalis (artery, vein, and ureter) of the right kidney were further ligated to thereby prepare the rats whose renal function was lowered to approximately 1/8 of the normal function. Each group consisted of eight rats. The drugs to be tested (20 mg/kg) were administered to each administering group, and only water was administered to control group. After two days from the administration, the systolic blood pressure was measured by the tail cuff method using a blood pressure measuring apparatus (UR5000; Ueda).
# [2] = system: kidney disease model rats; experiment: Action to survival time of kidney diseased animals; assay type: in vivo, Sprague-Dawley female rats; settings: 20 mg/kg/day per os, observation eight weeks (upper limit); control 5.0
# Description: The kidney disease model rats were prepared as in Example 115. Twenty-five groups (8 rats per group) were prepared in a manner so that there was no major difference between the groups in the serum creatinine value and the urea nitrogen value indicating renal function. The rats in each group were allowed to freely take up feed and water. […] To the rats in the control group, only water was forcedly administered per os every day. If kidney diseases are aggravated, the rat will die of uremia. Thus, the survival time was observed as comprehensive indication of the improvement effect on the kidney diseases. The observation period was eight weeks. Thus if all rats survived, the average survival time is eight weeks and it is an upper limit.
# [3] = system: kidney disease model rats; experiment: Renal function indicatory value (action to kidney diseases); assay type: in vivo, Sprague-Dawley female rats; settings: 20 mg/kg/day per os, two weeks; for Creatinine clearance: 24 hours urine, control 0.20; for Creatinine / Urea nitrogen: serum; for Creatinine: control 2.0; for Urea nitrogen: control 100
# Description: The kidney disease model rats were prepared as in Example 115. Twenty-five groups (8 rats per group) were sleeked in a manner so that there were no major differences between each group in the serum creatinine value and the urea nitrogen value indicating renal function. The rats in each group were allowed to freely take up feed and water. […] To the rats in the control group, only water was forcedly administered per os every day. After two weeks, 0.2 ml of blood was collected from the carotid artery of the rat under anesthesia, and centrifuged to obtain serum. Using 25 μl of the serum, serum creatinine (Scr) was measured by a creatinine analytical instrument (Beckman). Using 10 μl of the serum, urea nitrogen (BUN) was measured by a BUN analytical instrument (Beckman). Creatinine clearance was evaluated as follows:
# After serum creatinine measurement, rats were placed in urinary metabolic cages for 24 hours to collect urine. Urinary creatine concentration (Ucr) was measured by a creatinine analytical instrument, and total volume of urination (Uvol) was also measured. Creatinine clearance (CCr) was calculated by the following formula: [formula]
# [4] = biological target: T1, angiotensin II receptor subtype 1 (AT1) (Oryctolagus cuniculus, UniProt P34976); experiment: Binding assay, angiotensin II receptor subtype 1 (AT1); set-up: species or system rabbit (adrenal glands); settings: 100 μM, AT1, rabbit adrenal glands
# T1 construct: receptor: from adrenal glands in rabbits; from tissue; host or cells: rabbit adrenal glands
# T1 sequence (P34976 1-359): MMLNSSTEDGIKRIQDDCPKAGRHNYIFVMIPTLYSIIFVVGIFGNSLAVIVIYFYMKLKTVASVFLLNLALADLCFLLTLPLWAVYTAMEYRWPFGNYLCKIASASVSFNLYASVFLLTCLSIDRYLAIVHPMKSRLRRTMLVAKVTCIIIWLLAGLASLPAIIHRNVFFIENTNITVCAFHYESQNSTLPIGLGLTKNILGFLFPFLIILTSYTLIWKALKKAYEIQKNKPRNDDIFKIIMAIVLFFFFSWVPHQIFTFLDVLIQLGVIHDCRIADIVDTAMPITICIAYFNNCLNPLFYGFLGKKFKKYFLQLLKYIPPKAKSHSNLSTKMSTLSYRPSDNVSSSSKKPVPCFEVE
# Description: (§1) In this Example, the affinity to the angiotensin II receptor subtype 1 or subtype 2 was evaluated by a binding assay in accordance with the method described in Biochem. Pharmacol., 33, 4057-4062 (1984).
# (§2) Specifically, the measurement of the total binding in the presence of each drug was performed as follows:
# (§3) A mixture (final volume=0.25 ml) of a drug in a given concentration (the drug was dissolved in DMSO, and diluted to a double volume with a buffer attached to a drug discovery system to prepare sample for the assay; 0.025 ml), a tracer (0.025 ml), and receptors (0.2 ml) was incubated [in the case of the angiotensin II receptor subtype 1 (AT1), at room temperature for 3 hours, and in the case of the subtype 2 (AT2), at 37° C. for 1 hour]. Then, the reaction mixture was filtered with suction (GF/C filter was used in AT1, and GF/B filter was used in AT2). The filter papers after filtration with suction (the tracer bound to the receptors) were counted by a γ-well counter (ARC-500, Aloka). The non-specific bindings were measured by repeating the above method, except that a large excess amount of a displacer was added. The specific binding of the drug in the given concentration was calculated by subtracting the non-specific binding from the total binding, respectively.
# (§4) In AT1 and AT2, the percentages to inhibit the bindings of radioactive ligands (tracer) to receptors by the drugs to be tested (IC50 value of concentration to show 50% inhibition, or binding inhibition % in 100 μM) were measured, using the drugs to be tested and control drugs in the given concentration.
# [5] = biological target: T2, angiotensin II receptor subtype 2 (AT2) (Bos taurus, UniProt G5E6F7); experiment: Binding assay, angiotensin II receptor subtype 2 (AT2); set-up: species or system bovine (cerebellar cortex); settings: 100 μM, AT2, bovine cerebellar cortex, 37° C. 1 hour; read-out: Binding inhibition % in 100 μm, AT2
# T2 construct: receptor: from cerebellar cortex in bovine; from tissue; host or cells: bovine cerebellar cortex
# T2 sequence (G5E6F7 1-362): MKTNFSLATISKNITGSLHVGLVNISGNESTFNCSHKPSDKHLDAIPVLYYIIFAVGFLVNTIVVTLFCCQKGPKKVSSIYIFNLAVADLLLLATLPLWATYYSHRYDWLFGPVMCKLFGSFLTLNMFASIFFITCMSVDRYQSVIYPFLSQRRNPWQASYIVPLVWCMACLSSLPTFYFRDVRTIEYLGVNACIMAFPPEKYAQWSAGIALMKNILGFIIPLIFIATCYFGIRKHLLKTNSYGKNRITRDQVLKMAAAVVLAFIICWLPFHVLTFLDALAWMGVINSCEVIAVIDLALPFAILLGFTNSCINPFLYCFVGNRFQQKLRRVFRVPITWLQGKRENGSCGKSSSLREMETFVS
# Description: as §1, §2, §3, §4
# receptor: from cerebellar cortex in bovine
# tracer: ^125 ITyr^4angiotensin II
# control drug: angiotensin II (human)
# (displacer): angiotensin II (human)
# [6] = system: mice; experiment: Acute toxicity, single oral dose; assay type: in vivo; settings: mouse, in vivo, po, 500 mg/kg
# Description: Five-week-old ICR female mice (5 mice per group) were bred for acclimation for a week. Then, the compounds of the present invention were dissolved or dispersed in an aqueous solution of 0.5% methylcellulose, and orally administered to the mice in a single dosage (500 mg/kg).
# [7] = system: hyperlipemia model rats; settings: cited from earlier work
# [8] = system: renal dysfunction; settings: in vivo; cited from earlier work
compound,measurement,setting,value
"CCCCCN(C)c1ccc(S(=O)(=O)N2CCOCC2)cc1NCc1ccc(-c2ccccc2-c2nn[nH]n2)cc1 [Compound No. 595, 4-[[4-(N-n-amyl-N-methyl)amino-3-[[2'-(1H-tetrazol-5-yl)biphenyl-4-yl]methyl]aminobenzene]sulfonyl]morpholine]",Blood pressure,[1],198 mmHg
same,Average survival time,[2],7.6 weeks
same,Creatinine clearance,[3],0.38 mL/min
same,Creatinine,[3],1.5 mg/dL
same,Urea nitrogen,[3],73 mg/dL
same,inhibition at 100 µM,[4],41%
same,inhibition at 100 µM,[5],0%
same,Number of deaths/number of survivals,[6],0/5
"CCCCCN(C)c1ccc(S(=O)(=O)N2CCOCC2)cc1NCc1ccc(C(=O)O)cc1 [Compound No. 596, 4-[[4-(N-n-amyl-N-methyl)amino-3-[(4-carboxyphenyl)methyl]aminobenzene]sulfonyl]morpholine]",Blood pressure,[1],198 mmHg
same,Average survival time,[2],6.0 weeks
same,Creatinine clearance,[3],0.34 mL/min
same,Creatinine,[3],1.6 mg/dL
same,Urea nitrogen,[3],78 mg/dL
same,inhibition at 100 µM,[4],22%
same,inhibition at 100 µM,[5],0%
same,Number of deaths/number of survivals,[6],0/5
"CCCCCN(C)c1c(NCc2ccc(C(=O)O)cc2)cc(S(=O)(=O)N2CCOCC2)cc1NC(=O)C(c1ccccc1)c1ccccc1 [Compound No. 598, 4-[[4-(N-n-amyl-N-methyl)amino-3-[(4-carboxylphenyl)methyl]amino-5-(diphenylacetamido)benzene]sulfonyl]morpholine]",Blood pressure,[1],202 mmHg
same,Average survival time,[2],7.2 weeks
same,Creatinine clearance,[3],0.35 mL/min
same,Creatinine,[3],1.6 mg/dL
same,Urea nitrogen,[3],80 mg/dL
same,inhibition at 100 µM,[4],36%
same,inhibition at 100 µM,[5],0%
same,Number of deaths/number of survivals,[6],0/5
"CCCCCN(C)c1c(NCc2ccc(-c3ccccc3-c3nn[nH]n3)cc2)cc(S(=O)(=O)N2CCOCC2)cc1NC(=O)CCc1ccccc1 [Compound No. 599, 4-[[4-(N-n-amyl-N-methyl)amino-3-[[2'-(1H-tetrazol-5-yl)biphenyl-4-yl]methyl]amino-5-(3-phenylpropionamido)benzene]sulfonyl]morpholine]",Blood pressure,[1],200 mmHg
same,Average survival time,[2],7.0 weeks
same,Creatinine clearance,[3],0.35 mL/min
same,Creatinine,[3],1.5 mg/dL
same,Urea nitrogen,[3],73 mg/dL
same,inhibition at 100 µM,[4],38%
same,inhibition at 100 µM,[5],0%
same,Number of deaths/number of survivals,[6],0/5
"CCCCC(=O)N(Cc1ccc(-c2nn[nH]n2)cc1)c1cc(C(=O)N2CCOCC2)ccc1N(C)C [Compound No. 604, 4-dimethylamino-3-N-[[4-(1H-tetrazol-5-yl)phenylmethyl]valeramido]benzoic acid morpholide]",Blood pressure,[1],200 mmHg
same,Average survival time,[2],7.0 weeks
same,Creatinine clearance,[3],0.28 mL/min
same,Creatinine,[3],1.8 mg/dL
same,Urea nitrogen,[3],75 mg/dL
same,inhibition at 100 µM,[4],15%
same,inhibition at 100 µM,[5],0%
same,Number of deaths/number of survivals,[6],0/5
"CCCCc1nc(Cl)c(CO)n1Cc1ccc(-c2ccccc2-c2nnn[nH]2)cc1 [DuP753, 2-butyl-4-chloro-5-(hydroxymethyl)-1-[[2'-(1H-tetrazol-5-yl)biphenyl-4-yl]methyl]imidazole, reference compound]",action to depress the blood pressure,[1]; in comparison with control group,clearly showed the action to depress the blood pressure
same,Blood pressure,[1],135 mmHg
same,Average survival time,[2],6.9 weeks
same,Blood pressure,[7]; large dose,an evident reduction of blood pressure was observed
same,effect to blood pressure,[7]; lower dose,without practical effect to blood pressure
same,kidney disease improvement,[7]; lower dose,the kidney disease was improved in a lower dose
same,Creatinine clearance,[3],0.32 mL/min
same,Creatinine,[3],1.6 mg/dL
same,Urea nitrogen,[3],80 mg/dL
C[C@H](CS)C(=O)N1CCC[C@H]1C(=O)O [captoril],Blood pressure,[8],blood pressure is lowered
same,progress of renal dysfunction,[8],the progress of renal dysfunction is improved
CCOC(=O)[C@H](CCc1ccccc1)N[C@@H](C)C(=O)N1CCC[C@H]1C(=O)O [enalapril],Blood pressure,[8],blood pressure is lowered
same,progress of renal dysfunction,[8],the progress of renal dysfunction is improved
